In patent publication US5891847A, “Treatment of degenerative eye disorders” (Ramot University Authority for Applied Research and …, priority 1992, dated 1999):

Tested on: RCS rats
Assay: Retinal degeneration in RCS rats: histological and morphometric analysis of the retina after daily intramuscular injections
Format: in vivo, rat
Source text: Royal College Surgeons (RCS) rats were used. In RCS rats, a progressive loss of photoreceptor cells, caused by a recessively autosomal mutation of the RPE (La Vail, 1981), leads to severe visual impairment. Due to the failure of pigment epithelium phagocytosis, rod outer segment material accumulates between the retina and the RPE and results in retinal degeneration. […] The age of the animals in the experiment will hereinafter be referred to in relation with the postnatal day which will be indicated as pn, wherein n=the postnatal day. This disorder is similar to age-related macular degeneration in humans in that a metabolic insufficiency of the RPE cells results in a secondary progressive photoreceptor loss and vision impairment.
Enucleated eyes removed from the orbit eyes were fixated for plastic embedding in epoxy resin (Faktorovitch 1990; La Vail, 1981). The eyes were sectioned parallel to the vertical meridian.
The histological sections which were analyzed originated from the posterior part of the eye, from ora serata to ora serata including the optic nerve. Each histological preparation was analyzed by computerized image analysis. Twelve measurements (six from each side of the optic nerve) were taken at pre-determined points. At each point the number of rows of photoreceptors in the outer nuclear layer (ONL), as well as the thickness of inner plexiform layer (IPL) were determined.
The RCS rats of the experiment were divided into three groups of rats, each group including eight rats (8 eyes). The three groups were as follows:
1. RCS rats at the age of p23 receiving no treatment.
2. RCS rats at the age of p38 receiving no treatment.
3. RCS rats at the age of p23 receiving daily intramuscular injections to the hind leg containing α-MSH analog which was prepared as described above. Each rat received 0.01 micrograms of the α-MSH analog in 0.2 ml PBS in each injection.
The rats were sacrificed at the age of p38, the eyes were enucleated and then subjected to fixation and histological sections were prepared, as described above. The histological preparations of the eyes were examined morphometrically as described above and, in addition, the retinas were also examined by light microscopy.
The effect of α-MSH analog treatment on the retinas of the rats was quantitated by measuring the two following parameters at 11 or 14 points in the retina at various distances from the optic nerve:
An experiment similar to the one described above was also carried out in which the α-MSH analog treatment of Group 3 rats was replaced by α-MSH treatment. The result of this experiment, not shown were similar to the results of the above described experiment.

[1] = RCS rats, daily i.m. injections, compared to untreated rats

Q: Which “number of layers of photoreceptors in the ONL (histological preparation, FIG. 3)” value (RCS rat at p38, daily intramuscular injections p23 to p38, 0.01 micrograms per injection, untreated 3-4 layers) does the source give for Nle^4 D-Phe^7 α-MSH [α-MSH analog] here?
A: 7-8 layers

Q: What about the “mean row number in treated higher than in non-treated” value (RCS rats at p38, ONL photoreceptor rows, treated vs non-treated) of the same substance?
A: 60%

Q: And the “mean number of photoreceptor rows in ONL (FIG. 4)” value (RCS rats at p38, daily i.m. injections, 9 out of 11 points of measurement, non-treated 3.5±0.4, p<0.05)?
A: 5.6±0.6 rows

Q: What about the “thickness of the inner plexiform layer (IPL) (FIG. 5)” value (RCS rats at p38, central sector of the retina, 1.3 mm of each side of the optic nerve, untreated 23 microns, p<0.05) of the same substance?
A: 50 microns

Q: What about the “effect on photoreceptor degeneration (in words)” value [1] of the same substance?
A: rescued from degeneration

Q: And the “effect on thickness of IPL / adjacent retinal layers (in words)” value [1]?
A: significantly greater

Q: And the “effective dose per rat (daily intramuscular injection)” value (RCS rats, dose needed to obtain the same effect on photoreceptor degeneration and retinal layer thickness)?
A: 0.01-0.5 microgram

Q: And the “number of rows of photoreceptors in the ONL, fold higher than non-treated” value (points 0.8 mm and 1.7 mm away from the optic nerve, Group 3 vs Group 2, p<0.001)?
A: 2 ×
